Experimental data as given in patent publication US20240299266A1, “FRAGRANCE COMPOSITIONS WITH MOISTURIZING BENEFITS” (Firmenich SA, priority 2021, published 2024).
Entries after “also recorded” stand apart in the source; their conditions may differ.

Assay: TEWL (trans-epidermal water loss) measurement on in-vitro skin model
Details: 50 μL applied on hydrated artificial skin membrane on a Franz Cell, Vapometer, TEWL during 60 min, normalized to pre-treatment reference (100%)
Description: The present inventors have investigated the moisturizing potential of perfume ingredients. To perform this assessment they used a model called a skin replicating surface, and measured the transepidermal water loss (TEWL) before and after the deposit of a sample of the perfume ingredient. This is measure of the moisturizing activity of the perfume ingredient.
The moisturizing activity of a fragrance component may be calculated as follows. • a step of controlled deposition of a fragrance component upon an skin replicating surface, • a step of measurement of a quantity of evaporated water from the skin replicating surface or of remaining water on the skin replicating surface after the deposition of the fragrance component at different measurement times, • a step of reduction of the water evaporation rate calculation depending on the measured evaporated or remaining water quantities measured, • a step of moisturizing activity calculation as a function of the water evaporation rate measured.
The skin replicating surface comprising (i) a hydrogel membrane layer comprising a water permeable substrate supporting a biopolymer, and (ii) a stratum corneum mimic layer.
The hydrogel membrane composition should include a knitted cotton piece topped by a hydrogel containing biopolymer (gelatin) able to form a hydrogel with water and glycerol.
The stratum corneum mimic layer can be a Vitro-Corneum substrate (product of IMS inc.)
Before measurements, the hydrogel membrane and the Vitro-Corneum substrate should be separately hydrated in a hydration chamber and then, assembled. The Vitro-Corneum substrate is made of proteins and lipids and mimics the thickness, the visco-elasticity, the chemical reactivity and the surface properties of human stratum corneum. The hydrogel allows to keep the Vitro-Corneum substrate hydrated.
Hydrogel is prepared by mixing gelatin, glycerol and water at a water bath in the following composition. Preferably around 50% of the hydrogel is glycerol and around 5% is gelatin completed to 100% with water. This is added to a supporting surface and allowed to set.
Both part of the artificial skin model needs to be hydrated before being assembled. Hydrogel membranes and the Vitro-Corneum substrate (2×2 cm) are placed into an hydration chamber containing the glycerol/water wetting solution. Hydrogel membranes are hydrated and Vitro-Corneum substrates are hydrated. When the hydration is complete, the Vitro-Corneum substrate is deposited on the hydrogel. The final skin model is now ready for experiments.
The TEWL (Trans-Epidermal Water Loss) measurements were performed with a Vapometer and Moisturemeter, product of Delfin Technologies (Finland).
Hydrated artificial skin membrane is placed on the top of a Franz Cell, 50 μL of the product to be tested is applied on the membrane and spread manually with a finger protected by a glove. The Vapometer measures the water evaporation rate thanks to sensitive humidity sensors mounted in a cylindrical measurement chamber at the core of the device. During the measurement, the chamber is closed by the support and unaffected by ambient airflows. The water evaporation rate (g/m^2 h) is calculated from the increase of relative humidity in function of time. Ambient temperature and humidity are recorded using an external room sensor.
For our TEWL measurement method, each experiment lasts one hour, and several measurements were taken at different time points during this period.
All the experiments were compared to a reference system: hydrated artificial skin model, pre-treatment, without raw material application. […] For each experiment, the evaporation rate was measured before the ingredient application and the TEWL results were normalized by its value. With the normalization, the reference corresponds to 100% of water evaporation.

Compound	moisturizing (reduction of water evaporation rate / TEWL after deposit of the sample)	other results
1-oxa-12-cyclohexadecen-2-one (a)+1-oxa-13-cyclohexadecen-2-one	suitable moisturizing potential	
CC(=O)[C@]1(C)CC2=C(CCCC2(C)C)C[C@H]1C (racemic) [1-((2rs,3rs)-2,3,8,8-tetramethyl-1,2,3,4,5,6,7,8-octahydronaphthalen-2-yl)ethenone]	suitable moisturizing potential	
CO[C@@]1(C)CC[C@@]23C[C@@H]1C(C)(C)[C@@H]2CC[C@H]3C (racemic) [(+−)-8-methoxycedrane]	have moisturizing effects; also recorded: suitable moisturizing potential	
CC1/C=C/CCCCCCCCCCC(=O)C1 (racemic) [(+−)-(4e)-3-methyl-4-cyclopentadecen-1-one]	suitable moisturizing potential	
C=CCCC(=O)C1=CCCC(C)(C)C1 [1-(5,5-dimethyl-1-cyclohexen-1-yl)-4-penten-1-one]	suitable moisturizing potential	
C=C(C)C1CC=C(C)CC1 (stereo not shown) [1-methyl-4-(1-methylethenyl)-cyclohexene]	have moisturizing effects; also recorded: suitable moisturizing potential	
CCC(=O)OCC(=O)O[C@@H](C)[C@@H]1CCCC(C)(C)C1 [2-{(1S)-1-[(1R)-3,3-dimethylcyclohexyl]ethoxy}-2-oxoethyl propionate]	have moisturizing effects	
CC1(C)CCC[C@]2(C)[C@H]3CCO[C@]3(C)CC[C@@H]12 [(3ar,5as,9as,9br)-3a,6,6,9a-tetramethyldodecahydronaphtho[2,1-b]furan]	suitable moisturizing potential	
CCC(=O)OCC(C)(C)O[C@@H](C)[C@@H]1CCCC(C)(C)C1 [(+)-2-{(1S)-1-[(1R)-3,3-dimethylcyclohexyl]ethoxy}-2-methylpropyl propionate]	suitable moisturizing potential	
CCCCC[C@@H]1C(=O)CCCC[C@H]1CC(=O)OC [(+)-methyl (1s)-trans-3-oxo-2-pentyl-1-cycloheptaneacetate]	suitable moisturizing potential	moisturizing (reduction of water evaporation rate / TEWL after deposit of the sample) (listed as Cycloheptaneacetic acid, 3-oxo-2-pentyl-): have moisturizing effects
CC(=O)OCc1ccccc1 [benzyl acetate]	suitable moisturizing potential	moisturizing (reduction of water evaporation rate / TEWL after deposit of the sample) (listed as Benzyl acetate): have moisturizing effects
O=C1CCCCCCCCCCCCCCO1 [oxacyclohexadecan-2-one]	suitable moisturizing potential	moisturizing (reduction of water evaporation rate / TEWL after deposit of the sample) (listed as Oxacyclohexadecan-2-one): have moisturizing effects
(3RS,3aRS,6SR,7aSR)-3,6-dimethylhexahydro-1-benzofuran-2(3H)-one (A)+(3RS,3aSR,6RS,7aRS)-3,6-dimethylhexahydro-1-benzofuran-2(3H)-one (B)	have moisturizing effects; also recorded: suitable moisturizing potential	
